Measured values taken from patent publication US7820839B2, “Taxoid-fatty acid conjugates and pharmaceutical compositions thereof” (The Research Foundation of State University of New York, priority 2003, dated 2010).
Read-outs that look alike come from different tables or passages of the source.

Tests used:
[1] = test system: pgp+ human colon tumor xenograft, DLD-1; conditions: for Days to 600 mm^3 Median / Growth Delay / Toxicity: number of animals who either died or lost greater than 20% body weight: SCID mice; for Days to 600 mm^3 Median / Growth Delay / Toxicity: number of animals who either died or lost greater than 20% body weight / Tumor free mice/Group: DLD-1; for Tumor free mice/Group: tumors less than 600 mm^3 on day 201
Procedure: (§1) Female severe combined immune deficient, (SCID) mice aged six to eight weeks were obtained from either the in-house breeding facility at Roswell Park Cancer Institute or Taconic (Germantown, N.Y.). All aspects of animal care complied with the Institutional Animal Care and Use Committee guidelines. […] Tumors were initiated by implantation of approximately 50 mg of non-necrotic tumor fragments on the right flank using a 12-guage trocar needle. Chemotherapy was started when the tumor was established as a palpable mass, (approximately 50-100 mm^3 size). Therapy consisted of i.v. injections through the tail vein, given four times, three days apart. Each drug treatment group or drug free vehicle consisted of 4-5 mice per group, untreated controls contained 10 mice per group.
(§2) These were used for comparison purposes. DHA-taxoids and other omega-3 fatty acid-taxoids were prepared as a 30 mg/mL stock solution in equal parts of Tween 80 (polyoxyethylene-sorbitan monooleate; purchased from Sigma Chemical Company) and absolute ethanol. To stablize the formulation of the DHA-taxoids and other omega-3 fatty acid-taxoids, antioxidants, L-ascorbic acid (3.9 mM) and α-tocopherol (2.0 mM), were added. Each stock solution was further diluted before use in 0.9% NaCl (saline) so that the appropriate concentration of each drug could be injected i.v. via the tail vein, in a volume of approximately 0.4 mL for a 20 g mouse. Each drug was administered once a day on […].
(§3) For each animal, the tumor length (1) and width (w), each in mm, were measured using electronic calipers and recorded every 3-4 days. Tumor volume (v), in mm^3, was calculated using the formula: v=0.4(l×w^2). The time in days to the pre-determined target tumor volume of 600 mm^3 was linearly interpolated from a plot of log(volume) versus time. Statistically significant differences in tumor volumes between control and drug-treated mice were determined by the Cox-Mantel test. […] All statistical tests were two-sided.

[2] = test system: Madison 109 subcutaneous lung tumor; conditions: cited from earlier work
[3] = cited from earlier work
[4] = test system: human ovarian tumor xenograft (pgp−) A121; assay: In vivo tumor growth assay, A121 xenograft in SCID mice; conditions: for Tumor free mice/Group: no palpable tumor on day 197; for Tumor free mice/Group / Days to 600 mm^3 Median / Growth Delay / Toxicity: number of animals who either died or lost greater than 20% body weight: A121; for Days to 600 mm^3 Median / Growth Delay / Toxicity: number of animals who either died or lost greater than 20% body weight: SCID mice; for antitumor effect (in words): human ovarian tumor xenograft (pgp−) A121, SCID mice
Procedure: as §1, §2, §3

[5] = test system: human colon carcinoma SW-620 xenografts; conditions: SW-620 xenografts in mice; cited from earlier work
[6] = test system: human breast cancer cell line MCF7-MDR; conditions: drug-resistant, MDR phenotype; cited from earlier work
[7] = total dose 75 mg/kg (25 mg/kg/inj) i.v. day 5, 8 and 11
[8] = total dose 75 mg/kg (25 mg/kg/inj) i.v.
[9] = total dose 150 mg/kg (50 mg/kg/inj) i.v. day 5, 8 and 11
[10] = total dose 150 mg/kg (50 mg/kg/inj) i.v.
[11] = total dose 240 mg/kg (80 mg/kg/inj) i.v. day 5, 8 and 11
[12] = total dose 240 mg/kg (80 mg/kg/inj) i.v.
[13] = total dose 90 mg/kg (30 mg/kg/inj) i.v.
[14] = total dose 60 mg/kg (20 mg/kg/inj) i.v.

Compound	Days to 600 mm^3 Median [1, 7] [days]	Growth Delay [1, 8] [days]	Days to 600 mm^3 Median [1, 9] [days]	Growth Delay [1, 10] [days]	Toxicity: number of animals who either died or lost greater than 20% body weight [1, 10]	Tumor free mice/Group [1, 8]	Tumor free mice/Group [1, 10]	Days to 600 mm^3 Median [1, 11] [days]	Growth Delay [1, 12] [days]	Toxicity: number of animals who either died or lost greater than 20% body weight [1, 12]	Tumor free mice/Group [1, 12]	antitumor effect (in words) [4]	other results
CC/C=C\C/C=C\C/C=C\C/C=C\C/C=C\C/C=C/CCC(=O)O[C@@H](C(=O)O[C@H]1C[C@@]2(O)[C@@H](OC(=O)c3ccccc3)C3[C@]4(OC(C)=O)COC4C[C@H](O)[C@@]3(C)C(=O)[C@H](O)C(=C1C)C2(C)C)[C@@H](NC(=O)OC(C)(C)C)c1ccccc1 (stereo partly shown) [DHA-Docetaxel, reference compound]	31	17	48	34	0	0/4	0/4	–	–	–	–	–	Toxicity: number of animals who either died or lost greater than 20% body weight [1, 8]: 0
CC/C=C\C/C=C\C/C=C\C/C=C\C/C=C\C/C=C\CCC(=O)O[C@@H](C(=O)O[C@@H]1C(C)=C2[C@@H](OC(C)=O)C(=O)[C@@]3(C)[C@H]([C@H](OC(=O)c4ccccc4)[C@@]4(OC(=O)O[C@@H]14)C2(C)C)[C@]1(OC(C)=O)CO[C@@H]1C[C@@H]3O)[C@H](CC(C)C)NC(=O)OC(C)(C)C [DHA-IDN-5109, 2′-Docosahexaenoyl-3′-dephenyl-3′-(2-methylpropyl)-10-acetyldocetaxel-1,14-carbonate]	–	–	14	0	0	–	0/5	–	–	–	–	–	–
CC/C=C\C/C=C\C/C=C\C/C=C\C/C=C\C/C=C/CCC(=O)O[C@@H](C(=O)O[C@H]1C[C@@]2(O)[C@@H](OC(=O)c3ccccc3)C3[C@](C)(C(=O)[C@H](OC(C)=O)C(=C1C)C2(C)C)[C@@H](O)C[C@H]1OC[C@@]31OC(C)=O)[C@@H](NC(=O)c1ccccc1)c1ccccc1 (stereo partly shown) [DHA-Paclitaxel, reference compound]	–	–	–	–	–	–	–	18	4	0	0/5	–	duration of sustained regression ([2]; optimum dose of 120 mg/kg, all mice): sixty; regression of lung tumor xenografts ([2]; optimum dose of 120 mg/kg, mice): complete regression; lower clearance rate than paclitaxel ([3]; mice): 94 fold; stability in plasma ([3]; plasma): stable in plasma; Tumor free mice/Group [4, 12]: 2/5; Days to 600 mm^3 Median [4, 12]: 197 days; Growth Delay [4, 12]: 186 days; Toxicity: number of animals who either died or lost greater than 20% body weight [4, 12]: 0
CC/C=C\C/C=C\C/C=C\C/C=C\C/C=C\C/C=C/CCC(=O)O[C@@H](C(=O)O[C@H]1C[C@@]2(O)[C@@H](OC(=O)c3ccccc3)C3[C@](C)(C(=O)[C@H](OC(=O)CC)C(=C1C)C2(C)C)[C@@H](O)C[C@H]1OC[C@@]31OC(C)=O)[C@H](CC(C)C)NC(=O)OC(C)(C)C (stereo partly shown) [DHA-SB-T-1103, 2′-Docosahexaenoyl-3′-dephenyl-3′-(2-methylpropyl)-10-propanoyldocetaxel]	18	4	–	–	–	0/5	–	–	–	–	–	–	–
CC/C=C\C/C=C\C/C=C\C/C=C\C/C=C\C/C=C/CCC(=O)O[C@@H](C(=O)O[C@H]1C[C@@]2(O)[C@@H](OC(=O)c3ccccc3)C3[C@](C)(C(=O)[C@H](OC(=O)C4CC4)C(=C1C)C2(C)C)[C@@H](O)C[C@H]1OC[C@@]31OC(C)=O)[C@H](CC(C)C)NC(=O)OC(C)(C)C (stereo partly shown) [DHA-SB-T-1104, 2′-Docosahexaenoyl-3′-dephenyl-3′-(2-methyl-1-propyl)-10-cyclopropanecarbonyldocetaxel]	–	–	–	–	–	–	–	18	4	0	0/5	effective tumor growth delay	Tumor free mice/Group [4, 12]: 0/5; Days to 600 mm^3 Median [4, 12]: 126 days; Growth Delay [4, 12]: 115 days; Toxicity: number of animals who either died or lost greater than 20% body weight [4, 12]: 0
CC/C=C\C/C=C\C/C=C\C/C=C\C/C=C\C/C=C/CCC(=O)O[C@@H](C(=O)O[C@H]1C[C@@]2(O)[C@@H](OC(=O)c3ccccc3)C3[C@](C)(C(=O)[C@H](OC(=O)CC)C(=C1C)C2(C)C)[C@@H](O)C[C@H]1OC[C@@]31OC(C)=O)[C@H](C=C(C)C)NC(=O)OC(C)(C)C (stereo partly shown) [DHA-SB-T-1213, 2′-Docosahexaenoyl-3′-dephenyl-3′-(2-methyl-1-propenyl)-10-propanoyldocetaxel]	68	54	–	–	–	0/5	–	–	–	–	–	excellent results	Tumor free mice/Group [4, 13]: 4/5; Days to 600 mm^3 Median [4, 13]: >197 days; Growth Delay [4, 13]: >186 days
CC/C=C\C/C=C\C/C=C\C/C=C\C/C=C\C/C=C\CCC(=O)O[C@@H](C(=O)O[C@H]1C[C@@]2(O)[C@@H](OC(=O)c3ccccc3)[C@@H]3[C@]4(OC(C)=O)CO[C@@H]4C[C@H](O)[C@@]3(C)C(=O)[C@H](OC(=O)C3CC3)C(=C1C)C2(C)C)[C@H](C=C(C)C)NC(=O)OC(C)(C)C [DHA-SB-T-1214, 2′-Docosahexaenoyl-3′-dephenyl-3′-(2-methyl-1-propenyl)-10-cyclopropanecarbonyldocetaxel]	–	–	–	–	–	–	–	>201	>187	0	5/5	–	survival of mice ([1]; day 201, DLD-1, SCID mice): all mice were alive on day 201; tumor detected in treated mice ([1]; day 201, DLD-1, SCID mice): no trace of tumor was detected; antitumor effect (in words) ([1]; drug-resistant human colon tumor xenografts in SCID mice): remarkable antitumor effect
CC/C=C\C/C=C\C/C=C\C/C=C\C/C=C\C/C=C/CCC(=O)O[C@@H](C(=O)O[C@H]1C[C@@]2(O)[C@@H](OC(=O)c3ccccc3)C3[C@](C)(C(=O)[C@H](OC(=O)N(C)C)C(=C1C)C2(C)C)[C@@H](O)C[C@H]1OC[C@@]31OC(C)=O)[C@H](C=C(C)C)NC(=O)OC(C)(C)C (stereo partly shown) [DHA-SB-T-1216]	–	–	–	–	–	–	–	–	–	–	–	effective tumor growth delay	Tumor free mice/Group [4, 13]: 1/5; Days to 600 mm^3 Median [4, 13]: >197 days; Growth Delay [4, 13]: >186 days; Toxicity: number of animals who either died or lost greater than 20% body weight [4, 13]: 4
CC(=O)O[C@H]1C(=O)[C@@]2(C)[C@H]([C@H](OC(=O)c3ccccc3)[C@]34OC(=O)O[C@H]3[C@H](OC(=O)[C@H](O)[C@H](CC(C)C)NC(=O)OC(C)(C)C)C(C)=C1C4(C)C)[C@]1(OC(C)=O)CO[C@@H]1C[C@@H]2O [IDN-5109, ortataxel, reference compound]	–	–	46	32	0	–	0/3	–	–	–	–	–	activity against xenografts (in words) [5]: impressive activity
CC(=O)O[C@H]1C(=O)[C@@]2(C)[C@H]([C@H](OC(=O)c3ccccc3)[C@]3(O)C[C@H](OC(=O)[C@H](O)[C@@H](NC(=O)c4ccccc4)c4ccccc4)C(C)=C1C3(C)C)[C@]1(OC(C)=O)CO[C@@H]1C[C@@H]2O [Paclitaxel, reference compound]	–	–	–	–	–	–	–	–	–	–	–	–	regression of the tumors ([2]; optimum dose of 20 mg/kg, mice): neither complete nor partial regression; IC50 [6]: 300 to 800 nM; Days to 600 mm^3 Median ([1]; total dose 60 mg/kg (20 mg/kg/inj) i.v. day 5, 8 and 11): 22 days; Growth Delay [1, 14]: 8 days; Toxicity: number of animals who either died or lost greater than 20% body weight [1, 14]: 0; Tumor free mice/Group [1, 14]: 0/3; Tumor free mice/Group [4, 14]: 0/5; Days to 600 mm^3 Median [4, 14]: 94 days; Growth Delay [4, 14]: 83 days; Toxicity: number of animals who either died or lost greater than 20% body weight [4, 14]: 0
